From publication PMC6766977 (International Journal of Cancer, 2019)
pIC50: −log10 of the molar value.

Tests used:
[1] = test system: KuCaP‐1 prostate cancer xenograft; assay: KuCaP-1 patient-derived xenograft in vivo efficacy; design: species or system mice; conditions: for ΔT/ΔC tumor volume: Day 68; for Maximal body weight loss: vehicle group 10%
LNCaP = assay: Cell viability; format: cell-based, human; conditions: read-out: IC50 inhibition of cell viability LNCaP; 1 nM R1881, 6 days; mean ± SD
[2] = test system: LAPC‐4 prostate cancer xenograft; assay: LAPC-4 xenograft in vivo efficacy; design: species or system mice; conditions: for ΔT/ΔC tumor volume: Day 56

CNC(=O)c1ccc(N2C(=S)N(c3ccc(C#N)c(C(F)(F)F)c3)C(=O)C2(C)C)cc1F [Enzalutamide, reference compound]
ΔT/ΔC tumor volume ([1]; KuCaP‐1, 30 mg/kg daily): 70% | ΔT/ΔC tumor volume ([1]; KuCaP‐1, 100 mg/kg daily): 99%

CC(=O)c1cc(C(=O)N[C@@H](C)Cn2ccc(-c3ccc(C#N)c(Cl)c3)n2)[nH]n1 [Keto‐darolutamide]
pIC50 (LNCaP): 5.49

CC(O)c1cc(C(=O)N[C@@H](C)Cn2ccc(-c3ccc(C#N)c(Cl)c3)n2)[nH]n1 (some centres unmarked) [Darolutamide]
pIC50 (LNCaP): 5.28 | ΔT/ΔC tumor volume ([2]; LAPC‐4, 100 mg/kg bi‐daily oral): 25% | ΔT/ΔC tumor volume ([2]; LAPC‐4, 200 mg/kg once daily oral): 23% | Reduction of FKBP5 expression in tumors ([2]; LAPC‐4 tumors, highest treatment doses, 4 hr after final dosing): 50% | ΔT/ΔC tumor volume ([1]; KuCaP‐1, 40 mg/kg bi‐daily oral): 45% | Maximal body weight loss ([1]; KuCaP‐1, 40 mg/kg bi‐daily): 8% | ΔT/ΔC tumor volume ([1]; KuCaP‐1, 100 mg/kg bi‐daily oral): 26% | Maximal body weight loss ([1]; KuCaP‐1, 100 mg/kg bi‐daily): 6%

C[C@H](O)c1cc(C(=O)N[C@@H](C)Cn2ccc(-c3ccc(C#N)c(Cl)c3)n2)n[nH]1 [(S,S)‐darolutamide]
pIC50 (LNCaP): 5.28

CC(O)(CS(=O)(=O)c1ccc(F)cc1)C(=O)Nc1ccc(C#N)c(C(F)(F)F)c1 (centres unmarked) [Bicalutamide, reference compound]
pIC50 (LNCaP): 5.46

C[C@@H](Cn1ccc(-c2ccc(C#N)c(Cl)c2)n1)NC(=O)c1cc([C@@H](C)O)[nH]n1 [(S,R)‐darolutamide]
pIC50 (LNCaP): 5.33
